Measurements as given in US6455540B1, “Methods of use of quinolone compounds against anaerobic pathogenic bacteria” (priority 1999, dated 2002).

Columns and labels:
Test in all cases: Agar dilution MIC
[1] = system: Fusobacterium spp. group 2; assay type: cell-based, Fusobacterium mortiferum, necrogenes, ulcerans; conditions: 12 isolates
[2] = system: Clostridium ramosum; assay type: cell-based; conditions: 10 isolates
[3] = system: Fusobacterium spp group 1; assay type: cell-based; conditions: 19 isolates
[4] = system: Peptostreptococcus micros; assay type: cell-based; conditions: 12 isolates
[5] = system: Prevotella denticola/loeschii group; assay type: cell-based; conditions: 6 isolates
[6] = system: Prevotella bivia; assay type: cell-based; conditions: 21 isolates
[7] = system: Actinomyces odontolyticus; assay type: cell-based; conditions: 10 isolates
[8] = system: Prevotella buccae-oris group; assay type: cell-based; conditions: 22 isolates
[9] = system: Clostridium clostridioforme; assay type: cell-based; conditions: 11 isolates
[10] = system: Porphyromonas macaccae; assay type: cell-based; conditions: 13 isolates
[11] = system: Prevotella intermedia; assay type: cell-based; conditions: 11 isolates
[12] = system: Fusobacterium varium; assay type: cell-based; conditions: 17 isolates
[13] = system: Peptostreptococcus magnus; assay type: cell-based; conditions: 13 isolates
[14] = system: Clostridium inocuum; assay type: cell-based, Clostridium innocuum; conditions: 11 isolates
[15] = system: Porphyromonas gingivalis; assay type: cell-based; conditions: 13 isolates
[16] = system: Bacteroides tectum; assay type: cell-based; conditions: 22 isolates
[17] = system: Peptostreptococcus asaccharolyticus; assay type: cell-based; conditions: 11 isolates
[18] = system: Anaerobiospirillum succiniciproducens; assay type: cell-based; conditions: 3 isolates
[19] = system: Fusobacterium russii; assay type: cell-based
[20] = system: Bacteroides ureolyticus; assay type: cell-based; conditions: 17 isolates
[21] = system: Peptostreptococcus prevotii; assay type: cell-based; conditions: 9 isolates
[22] = system: Bacteroides gracilis; assay type: cell-based, Bacteroides gracilis (Campylobacter gracilis); conditions: 11 isolates
[23] = system: Clostridium dfficile; assay type: cell-based, Clostridium difficile; conditions: 14 isolates
[24] = system: Prevotella melaninogenica; assay type: cell-based; conditions: 12 isolates
[25] = system: Veillonella spp.; assay type: cell-based; conditions: 24 isolates
[26] = system: Bilophila wadsworthia; assay type: cell-based; conditions: 16 isolates; agar supplemented with pyruvate
[27] = system: Actinomyces israelii; assay type: cell-based; conditions: 6 isolates
[28] = system: Prevotella heparinolytica; assay type: cell-based; conditions: 16 isolates
[29] = system: Anaerobiospirillum thomasii; assay type: cell-based; conditions: 13 isolates

Compound: CC1(C)S[C@@H]2[C@H](NC(=O)Cc3ccccc3)C(=O)N2[C@H]1C(=O)O [Penicillin G]
- Minimal Inhibitory Concentration 50% (MIC50) [1]: 0.25 µg/mL
- Minimal Inhibitory Concentration 90% (MIC90) [1]: 0.5 µg/mL
- Minimal Inhibitory Concentration 50% (MIC50) [2]: 0.06 µg/mL
- Minimal Inhibitory Concentration 90% (MIC90) [2]: 1 µg/mL
- Minimal Inhibitory Concentration Range [2]: 0.06 to 1 µg/mL
- Minimal Inhibitory Concentration 90% (MIC90) [3]: 2 µg/mL
- Minimal Inhibitory Concentration 90% (MIC90) [4]: 0.03 µg/mL
- Minimal Inhibitory Concentration 50% (MIC50) [5]: 4 µg/mL
- Minimal Inhibitory Concentration 50% (MIC50) [6]: 16 µg/mL
- Minimal Inhibitory Concentration 90% (MIC90) [6]: 32 µg/mL
- Minimal Inhibitory Concentration Range [6]: 0.25 to 32 µg/mL
- Minimal Inhibitory Concentration 50% (MIC50) [7]: 0.125 µg/mL
- Minimal Inhibitory Concentration 90% (MIC90) [7]: .0125 µg/mL
- Minimal Inhibitory Concentration Range [7]: 0.125 to 0.25 µg/mL
- Minimal Inhibitory Concentration 50% (MIC50) [8]: 8 µg/mL
- Minimal Inhibitory Concentration 90% (MIC90) [8]: >32 µg/mL
- Minimal Inhibitory Concentration 50% (MIC50) [9]: 1 µg/mL
- Minimal Inhibitory Concentration 90% (MIC90) [9]: 16 µg/mL
- Minimal Inhibitory Concentration 50% (MIC50) [10]: 0.5 µg/mL
- Minimal Inhibitory Concentration 90% (MIC90) [10]: 0.5 µg/mL
- Minimal Inhibitory Concentration 50% (MIC50) [11]: 0.03 µg/mL
- Minimal Inhibitory Concentration 90% (MIC90) [11]: 4 µg/mL
- Minimal Inhibitory Concentration 50% (MIC50) [12]: 0.5 µg/mL
- Minimal Inhibitory Concentration 90% (MIC90) [12]: 8 µg/mL
- Minimal Inhibitory Concentration 50% (MIC50) [13]: 0.03 µg/mL
- Minimal Inhibitory Concentration 90% (MIC90) [13]: 0.25 µg/mL
- Minimal Inhibitory Concentration 50% (MIC50) [14]: 0.5 µg/mL
- Minimal Inhibitory Concentration 90% (MIC90) [14]: 0.5 µg/mL
- Minimal Inhibitory Concentration 90% (MIC90) [15]: 0.03 µg/mL
- Minimal Inhibitory Concentration 50% (MIC50) [16]: 0.03 µg/mL
- Minimal Inhibitory Concentration 90% (MIC90) [16]: 16 µg/mL
- Minimal Inhibitory Concentration 50% (MIC50) [17]: 0.03 µg/mL
- Minimal Inhibitory Concentration 90% (MIC90) [17]: 0.25 µg/mL
- Minimal Inhibitory Concentration 50% (MIC50) [18]: 0.5 µg/mL
- Minimal Inhibitory Concentration Range [18]: 0.5 to 1 µg/mL
- Minimal Inhibitory Concentration 50% (MIC50) [19]: 0.03 µg/mL
- Minimal Inhibitory Concentration 90% (MIC90) [19]: 0.06 µg/mL
- Minimal Inhibitory Concentration 90% (MIC90) [20]: 0.25 µg/mL
- Minimal Inhibitory Concentration 50% (MIC50) [21]: 0.03 µg/mL
- Minimal Inhibitory Concentration Range [21]: 0.03 to 0.06 µg/mL
- Minimal Inhibitory Concentration 50% (MIC50) [22]: 0.125 µg/mL
- Minimal Inhibitory Concentration 90% (MIC90) [22]: 4 µg/mL
- Minimal Inhibitory Concentration 50% (MIC50) [23]: 2 µg/mL
- Minimal Inhibitory Concentration 90% (MIC90) [23]: 4 µg/mL
- Minimal Inhibitory Concentration Range [23]: 1 to 4 µg/mL
- Minimal Inhibitory Concentration 50% (MIC50) [24]: 0.25 µg/mL
- Minimal Inhibitory Concentration 90% (MIC90) [24]: 2 µg/mL
- Minimal Inhibitory Concentration 50% (MIC50) [25]: 1 µg/mL
- Minimal Inhibitory Concentration 90% (MIC90) [25]: 4 µg/mL
- Minimal Inhibitory Concentration 50% (MIC50) [26]: 4 µg/mL
- Minimal Inhibitory Concentration 90% (MIC90) [26]: 8 µg/mL
- Minimal Inhibitory Concentration Range [26]: 2 to 16 µg/mL
- Minimal Inhibitory Concentration 50% (MIC50) [27]: 0.03 µg/mL
- Minimal Inhibitory Concentration 50% (MIC50) [28]: 0.06 µg/mL
- Minimal Inhibitory Concentration 90% (MIC90) [28]: 0.125 µg/mL
- Minimal Inhibitory Concentration Range [28]: 0.06 to 0.25 µg/mL
- Minimal Inhibitory Concentration 50% (MIC50) [29]: 0.06 µg/mL
- Minimal Inhibitory Concentration 90% (MIC90) [29]: 0.125 µg/mL
- Minimal Inhibitory Concentration Range [29]: 0.06 to 0.125 µg/mL
